Data published in PubChem BioAssay AID1996.
≈ marks a conversion by molar mass, not a printed value.

Settings: buffer; pH 7.4; 200.0 µM

| SMILES | solubility kinetic [mg/mL] |
| --- | --- |
| O=C(NC1CCS(=O)(=O)C1)c1cc(-c2ccccc2)nc2ccccc12 (stereo not given) | > 0.055 |
| Cc1ccc([N+](=O)[O-])cc1N(CC(=O)N1CCCCC1)S(C)(=O)=O | > 0.0533 |
| COc1ccc(CNC(=O)COC(=O)c2ccc(S(=O)(=O)N3CCCCC3)cc2)cc1 | 0.0021 (≈ 4.7 µM) |
| CC(=O)N1CCN(c2ccc(NC(=O)c3ccco3)cc2)CC1 | > 0.047 |
| Cc1ccc2oc(=O)c(/C=C(\O)c3ccccc3)nc2c1 | 0.0368 (≈ 132 µM) |
| CC(C)C[C@H](NC(=O)NCc1ccc(F)cc1)C(=O)O | > 0.0423 |
| O=C(Cn1cc(C(=O)C2CC2)c2ccccc21)Nc1ccccc1Cl | < 0.0004 |
| COc1ccc(CNC(=O)COC(=O)c2cccs2)cc1 | 0.0291 (≈ 95.3 µM) |
| O=C(NCCc1ccccc1)C1CCC(=O)N1C1CCCC1 (stereo not given) | > 0.0451 |
| CN1CCN(c2ccccc2NC(=O)c2cccs2)CC1 | > 0.0452 |
| COc1ccc(N2CCN(C(=O)c3cccnc3)CC2)c([N+](=O)[O-])c1 | 0.0366 (≈ 107 µM) |
| O=C(Cn1c(=O)oc2ccccc21)Nc1ccc(F)cc1 | 0.0218 (≈ 76.2 µM) |
| Cc1ccc(NC(=O)Nc2cc(C)on2)cc1 | 0.0128 (≈ 55.4 µM) |
| Cc1nc(N)nc(N/N=C/c2ccccc2)n1 | > 0.0342 |
| O=C(CN1CCN(c2ccc(Cl)cc2)CC1)c1ccccc1 | 0.0187 (≈ 59.4 µM) |
| CC(=O)Nc1ccc(NC(=O)C(C)OC(=O)C23CC4CC(CC(Cl)(C4)C2)C3)cc1 (stereo not given) | 0.0615 (≈ 147 µM) |
| Cc1ccc(NC(=O)N2CCCCCC2)c(C)c1 | > 0.037 |
| CCOc1ccc(/C=C/C(=O)N2CCOCC2)cc1OC | > 0.0437 |
| Cc1ccc(NC(=O)C2CCCN2C(=O)OC(C)(C)C)cc1C (stereo not given) | > 0.0478 |
| O=C(NCCCn1ccnc1)c1cc(-c2cccc(O)c2)on1 | 0.0396 (≈ 127 µM) |

| SMILES | solubility kinetic [mg/mL] |
| --- | --- |
| O=c1[nH]c2ccc([N+](=O)[O-])cc2nc1/C=C(\O)c1ccccc1 | 0.0023 (≈ 7.44 µM) |
| O=C1CC(NCCc2ccccc2)C(=O)N1CCc1ccccc1 (stereo not given) | 0.0461 (≈ 143 µM) |
| NC(=O)C1CCN(C(=O)CCSCc2ccccc2)CC1 | > 0.046 |
| COc1ccc(N2CCN(c3nccs3)CC2)cc1 | > 0.0413 |
| O=C(/C=C/c1ccco1)NC(=S)N1CCCCC1 | 0.0274 (≈ 104 µM) |
| O=[N+]([O-])c1cccc(C2(O)COc3ccccc3O2)c1 (stereo not given) | > 0.041 |
| O=C(O)c1ccc(OCC(O)Cn2c3ccccc3c3ccccc32)cc1 (stereo not given) | > 0.0542 |
| CCc1cccc(C)c1NC(=S)NCC1CCN(c2ccc(OC)cc2)C1 (stereo not given) | 0.0027 (≈ 7.04 µM) |
| COc1ccc(OCCNC(=O)Nc2cc(F)c(F)cc2Cl)cc1 | < 0.0004 |
| Cc1ccc(S(=O)(=O)/N=C(/c2ccc(F)cc2)N(C)C)cc1 | > 0.0481 |
| O=C(O)c1cccnc1SCc1cccc(Cl)c1 | 0.0415 (≈ 148 µM) |
| O=C(COC(=O)CSc1ccccc1)Nc1ccc(F)cc1F | > 0.0506 |
| O=C(Nc1ccc(F)cc1)C(Cc1ccccc1)n1cccc1 (stereo not given) | 0.0314 (≈ 102 µM) |
| Cc1cccc(C)c1OCC(=O)Nc1ccccc1N1CCCCC1 | < 0.0004 |
| NC(=O)NCC(c1ccccc1)C1CCCCC1 (stereo not given) | 0.0334 (≈ 136 µM) |
| COc1c(S(=O)(=O)N2CCN(C)CC2)ccc(Cl)c1Cl | 0.0456 (≈ 134 µM) |
| c1coc(CNc2nc3ccccc3s2)c1 | 0.0323 (≈ 140 µM) |
| Cc1ccc(NC(=O)C2CC(Cl)=CCC2C(=O)O)c([N+](=O)[O-])c1 (stereo not given) | > 0.0508 |
| O=C(NCCN1CCCCC1)Nc1ccc(F)cc1F | > 0.0425 |
| COc1ccc(C(=O)OCC(=O)NC2CCCC2)c(OC)c1OC | > 0.0506 |

| SMILES | solubility kinetic [mg/mL] |
| --- | --- |
| CC1(C)CCC(=O)C=C1Nc1ccc(F)c(Cl)c1 | 0.0382 (≈ 143 µM) |
| CNC(=O)c1cc(C(=O)c2ccc(C(F)(F)F)cc2)c[nH]1 | 0.0018 (≈ 6.08 µM) |
| O=C(CN1CCCCCC1)Nc1c(Cl)cc(Cl)cc1Cl | 0.0421 (≈ 125 µM) |
| CCCCCCNC1=NCCS1 | 0.0229 (≈ 123 µM) |
| COc1ccc(C2NC(=O)c3ccccc3N2)cc1 (stereo not given) | 0.0332 (≈ 131 µM) |
| O=S(=O)(NCCc1ccccn1)c1ccc(OC(F)(F)F)cc1 | 0.0519 (≈ 150 µM) |
| Nc1nc(-c2c(Cl)cccc2Cl)no1 | 0.0327 (≈ 142 µM) |
| Cc1ccc(-n2c(SCC(N)=O)nnc2-c2cnccn2)cc1 | > 0.049 |
| COc1ccc2[nH]c(=O)c(CNc3cc(C)ccc3C)cc2c1 | 0.0018 (≈ 5.84 µM) |
| COc1cccc(-c2noc(CCCC(=O)N3CCOCC3)n2)c1 | > 0.0497 |
| Cc1cc(C)c(N=C2SCC(=O)N2Cc2ccco2)c(C)c1 | 0.0115 (≈ 36.6 µM) |
| N#Cc1cccc(NC(=O)CSc2cccc[n+]2[O-])c1 | > 0.0428 |
| NC(=O)C1CCN(Cc2nc(-c3cccs3)no2)CC1 | > 0.0439 |
| CCOc1ncccc1C(=O)OCc1ccc([N+](=O)[O-])cc1 | 0.0013 (≈ 4.3 µM) |
| O=C(O)c1ncc(Cl)c(Cl)c1Cl | 0.0331 (≈ 146 µM) |
| CCc1ccc(-c2cnc3nc[nH]c(=O)c3n2)cc1 | > 0.0378 |
| CN1CCN(S(=O)(=O)c2ccc(N(C)Cc3c(F)cccc3Cl)nc2)CC1 | 0.0054 (≈ 13.1 µM) |
| Cc1cccc(-n2c(C)c(-c3ccccc3)[nH]c2=S)c1 | 0.0045 (≈ 16 µM) |
| CCOc1ccc(/C=C(\C)C(=O)c2c(C)cc(C)[nH]c2=O)cc1 | 0.0383 (≈ 123 µM) |
| Cc1ccc(NS(=O)(=O)c2ccc(C(=O)NC3CCN(Cc4ccccc4)CC3)cc2)cc1.Cl | 0.0064 |
